In the RepoRT retention time repository (doi:10.1016/j.jhazmat.2019.121712):

Assay: Thermo Scientific Acclaim RSLC 120 C18, 100 × 2.1 mm, 2.2 µm, 30 °C; A: 90% water + 10% methanol + 0.01% formic acid + 5 mM ammonium formate; B: methanol + 0.01% formic acid + 5 mM ammonium formate; gradient (min/%B) 0.1/1 3/39 14/99.9 16/99.9
Conditions: stereoisomer not certain

Row | LC retention time | Compound
1 | 4.98 min | Cc1nccn1CC1CCc2c(c3ccccc3n2C)C1=O (stereo not given)
2 | 3.86 min | CCS(=O)(=O)CCn1c([N+](=O)[O-])cnc1C
3 | 4.6 min | Cc1cc(NS(=O)(=O)c2ccc(N)cc2)no1
4 | 7.98 min | CN1CCCN=C1COC(=O)C(O)(c1ccccc1)C1CCCCC1 (stereo not given)
5 | 13.6 min | Oc1ccc2ccccc2c1N=Nc1ccccc1
6 | 4.38 min | NC(N)=NC(N)=NCCc1ccccc1
7 | 7.84 min | CC12C=CC(=O)C=C1CCC1C2C(O)CC2(C)C1CCC2(O)C(=O)CO (stereo not given)
8 | 5.29 min | CCC1(c2ccccc2)C(=O)NCNC1=O
9 | 4.21 min | CCNc1nc(NCC)[nH]c(=O)n1
10 | 6.82 min | c1ccc(C(CCN2CCCCC2)c2ccccc2)cc1
11 | 4.21 min | Cc1ncc([N+](=O)[O-])n1CCCO
12 | 1.93 min | CNCC(O)c1cccc(O)c1 (stereo not given)
13 | 1.39 min | CN(C)C(=N)N=C(N)N
14 | 5.86 min | CCCS(=O)(=O)c1ccc2nc(NC(=O)OC)[nH]c2c1
15 | 13.4 min | CCCCCCCCCCOc1cc2c(=O)c(C(=O)OCC)c[nH]c2cc1OCC
16 | 6.86 min | CC(C1=C(CCN(C)C)Cc2ccccc21)c1ccccn1 (stereo not given)
17 | 4.69 min | CCCNC(C)C(=O)Nc1ccccc1C (stereo not given)
18 | 1.52 min | CCOC1OC(C(=O)O)C(O)C(O)C1O (stereo not given)
19 | 6.84 min | CN1C(C(=O)Nc2ccccn2)=C(O)c2ccccc2S1(=O)=O
20 | 12.5 min | COc1cccc(N(C)C(=S)Oc2cccc(C(C)(C)C)c2)n1
21 | 9.05 min | CCC(c1ccccc1)c1c(O)c2ccccc2oc1=O (stereo not given)

Row | LC retention time | Compound
22 | 3.13 min | CN1C(=O)C(O)CC1c1cccnc1 (stereo not given)
23 | 3.61 min | CN(C)CCc1c[nH]c2ccc(CC3COC(=O)N3)cc12 (stereo not given)
24 | 2.83 min | CCN(CC)CCNC(=O)c1ccc(N)cc1
25 | 6.18 min | CCCCN1CCCCC1C(=O)Nc1c(C)cccc1C (stereo not given)
26 | 6.01 min | CC1CCCC(C)N1CCCC(O)(c1ccccc1)c1ccccn1 (stereo not given)
27 | 9.23 min | CCC1OC(=O)C(C)C(OC2CC(C)(OC)C(O)C(C)O2)C(C)C(OC2OC(C)CC(N(C)C)C2O)C(C)(O)CC(C)C(=NOCOCCOC)C(C)C(O)C1(C)O (stereo not given)
28 | 7.97 min | CN1C2CCC1CC(OC(c1ccccc1)c1ccccc1)C2 (stereo not given)
29 | 6.76 min | Cc1cc2n[nH]nc2cc1C
30 | 6.64 min | CN(C)CCOCC(=O)NC12CC3CC(CC(C3)C1)C2
31 | 2.54 min | CNCC(O)c1cccc(NS(C)(=O)=O)c1 (stereo not given)
32 | 2.41 min | CN1CCCC1c1cccnc1 (stereo not given)
33 | 8.74 min | CC12CCC(=O)C=C1CCC1C2C(O)CC2(C)C(C(=O)CO)CCC12 (stereo not given)
34 | 5.96 min | CC(C)Nc1nc(NC(C)C)[nH]c(=O)n1
35 | 4.88 min | N=c1nc(N2CCCCC2)cc(N)n1O
36 | 7.91 min | CC(CC(c1ccccc1)c1ccccc1)NC(C)(C)C (stereo not given)
37 | 7.72 min | CC(=O)c1ccc(S(=O)(=O)NC(=O)NC2CCCCC2)cc1
38 | 10.1 min | CN(C)c1nc(N(C)C)nc(N(C)C)n1
39 | 4.66 min | Cc1cccc(C)c1NC(=O)C1CCCCN1C (stereo not given)
40 | 7.81 min | COc1ccc2nc(S(=O)Cc3ncc(C)c(OC)c3C)[nH]c2c1 (stereo not given)
41 | 9.49 min | CCCOc1ccc(S(=O)(=O)N2CCN(CCO)CC2)cc1-c1nc2c(CCC)cn(CC)c2c(=O)[nH]1
42 | 6.24 min | CCCOc1ccc(C(=O)CCN2CCCCC2)cc1

Row | Compound | LC retention time
43 | CCCCCn1cc(C(=O)c2cccc3ccccc23)cc1-c1ccccc1C | 13.4 min
44 | COC=C(C(=O)OC)c1ccccc1Oc1cc(Oc2ccccc2C#N)ncn1 | 9.02 min
45 | COC(=O)C(c1ccccc1)C1CCCCN1 (stereo not given) | 4.96 min
46 | CCCCc1c(C)nc(NCC)[nH]c1=O | 8 min
47 | CN(C)CCc1c[nH]c2ccccc12 | 3.94 min
48 | CC(C)CC(C)Nc1ccc(Nc2ccccc2)cc1 (stereo not given) | 9.92 min
49 | CNCC1CCCCC1(O)c1cccc(O)c1 (stereo not given) | 4.28 min
50 | C=C1CC(=CC)C(=O)OC2CC[N+]3([O-])CC=C(COC(=O)C1(C)O)C23 (stereo not given) | 4.5 min
51 | CCN(CC)c1nc(C)cc(OP(=S)(OC)OC)n1 | 11.3 min
52 | Nc1nc(N)nc(N)n1 | 1.45 min
53 | CCCCCn1cc(C(=O)NC(C(N)=O)C(C)(C)C)c2ccccc21 (stereo not given) | 11.1 min
54 | CC(=O)OC1C=CC2C3Cc4ccc(O)c5c4C2(CCN3C)C1O5 (stereo not given) | 3.75 min
55 | CN(C)C1CSSSC1 | 3.16 min
56 | CC(N)Cc1ccc2[nH]ccc2c1 (stereo not given) | 4.07 min
57 | CCC(C)c1ccccc1OC(=O)NC (stereo not given) | 9.05 min
58 | CCCCCc1cc(O)c2c(c1)OC(C)(C)C1CCC(CO)=CC21 (stereo not given) | 12.5 min
59 | CC=C1CC(C)C(C)(O)C(=O)OCC2=CC[N+]3([O-])CCC(OC1=O)C23 (stereo not given) | 5.07 min

Row | Compound | LC retention time
60 | CC(C(=O)c1ccc2c(c1)OCO2)N1CCCC1 (stereo not given) | 4.13 min
61 | CCCN(CCC)c1c([N+](=O)[O-])cc(C(C)C)cc1[N+](=O)[O-] | 13.2 min
62 | CCOP(=S)(OCC)SCCS(=O)(=O)CC | 8.02 min
63 | CNC(=O)Oc1ccc(N(C)C)c(C)c1 | 5.15 min
64 | C1=CCC(c2cccnc2)NC1 (stereo not given) | 2.68 min
65 | CCCCCn1c(O)c(C(=O)c2cccc3ccccc23)c2ccccc21 | 14 min
66 | O=C(c1cccc2ccccc12)c1cn(CC2CCCCC2)c2ccccc12 | 13 min
67 | CCOP(=S)(OCC)SC1OCCOC1SP(=S)(OCC)OCC (stereo not given) | 12.1 min
68 | CC=C1CC(C)C(O)(CO)C(=O)OCC2=CC[N+]3([O-])CCC(OC1=O)C23 (stereo not given) | 4.33 min
69 | CNC(=O)Oc1ccccc1C(C)C | 8.12 min
70 | O=C1c2ccccc2C(=O)C1C(=O)C(c1ccccc1)c1ccccc1 | 8.6 min
71 | CNC(=O)ON=C(C)C(C)SC (stereo not given) | 6.07 min
72 | CC(=O)Oc1cccc2[nH]cc(CCN(C(C)C)C(C)C)c12 | 4.88 min
73 | Nc1ccc2c(c1)C(c1ccccc1)=NCC(=O)N2 | 4.78 min
74 | CCC1(c2cccc(O)c2)CCCCN(C)C1 (stereo not given) | 4.74 min
75 | CCCc1cc(OC)c(CCN)cc1OC | 7.46 min
